Residue numbers refer to the chain shown, from its start.
Legend:
Type in all cases: biochemical
PPIP5K2^KD H194A mutant = target: T1, PPIP5K2^KD H194A mutant (Homo sapiens, UniProt O43314, H194A); assay: ATPase activity of H194A mutant; conditions: data not shown
T1 construct: The kinase domain of human PPIP5K2 (PPIP5K2^KD; residues 1–366); made in house
T1 sequence (O43314 1-366 H194A): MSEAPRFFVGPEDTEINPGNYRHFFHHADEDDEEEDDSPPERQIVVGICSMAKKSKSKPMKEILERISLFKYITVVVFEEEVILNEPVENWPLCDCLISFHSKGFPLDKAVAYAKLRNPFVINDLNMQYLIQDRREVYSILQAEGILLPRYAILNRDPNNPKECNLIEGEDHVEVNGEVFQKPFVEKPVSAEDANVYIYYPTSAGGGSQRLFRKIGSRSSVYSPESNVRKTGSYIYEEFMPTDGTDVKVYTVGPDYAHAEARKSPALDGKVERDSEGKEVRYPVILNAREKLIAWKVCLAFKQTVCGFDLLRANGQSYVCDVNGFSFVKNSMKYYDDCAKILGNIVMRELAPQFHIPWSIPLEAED
Method: (§1) The initial InsP6 concentration was either 500 nM, 70 nM, or 40 nM. Various concentrations of 2,5-di-O-Bn-InsP4 were present as indicated. Radioactivity was assessed using an in-line Flo1 detector. The ADP-driven dephosphorylation of 100 nM 1,5-[PP]2-InsP4 by PPIP5K2^KD was usually determined by a luminescence-based assay of ATP accumulation ([Riley et al., 2012; Weaver et al., 2013]). The IC50 values were determined using GraphPad Prism v6.02 (n ≥ 3). In some experiments, 1,5-[PP]2-[^3H]InsP4 dephosphorylation by PPIP5K2^KD was assayed in 50 μl buffer containing 50 mM KCl, 20 mM HEPES pH 7.0, 7 mM MgSO4, 5 mM ADP, 1 mM EDTA. Reactions were then quenched, neutralized, and analyzed with HPLC using a Partisphere SAX column ([Weaver et al., 2013]); 1 ml fractions were collected for liquid scintillation spectrometry. The ATPase activity of PPIP5K2^KD (10–270 μg/ml) was assayed from Pi release following incubation at 37°C for 120–180 min in 20 μl reaction mixtures containing 20 mM Tris/HCl, pH 7.5, 10 mM ATP, 100 mM KCl, 0.1 mM EDTA, and 13 mM MgCl2.

PPIP5K2^KD R213A mutant = target: T2, PPIP5K2^KD R213A mutant (Homo sapiens, UniProt O43314, R213A); assay: ATPase activity of R213A mutant; conditions: Figures 7B and 7C
T2 construct: The kinase domain of human PPIP5K2 (PPIP5K2^KD; residues 1–366); made in house
T2 sequence (O43314 1-366 R213A): T1 sequence (O43314 1-366 H194A) with A194H, R213A
Method: as §1

PPIP5K2^KD E192G mutant = target: T3, PPIP5K2^KD E192G mutant (Homo sapiens, UniProt O43314, E192G); assay: ATPase activity of E192G mutant
T3 construct: The kinase domain of human PPIP5K2 (PPIP5K2^KD; residues 1–366); made in house
T3 sequence (O43314 1-366 E192G): T1 sequence (O43314 1-366 H194A) with E192G, A194H
Method: as §1
Protein Expression, Purification, Crystallization and Structure Determination […]
(§2) The structure was further manually rebuilt with COOT and refined with PHENIX and
(§3) REFMAC from the CCP4 package. Ligand topology and parameter files were prepared using
(§4) the PRODRG server. The molecular graphics representations were prepared with the program
(§5) PyMol (Schrödinger, LLC). The 2D ligand-protein interaction diagrams were generated by
(§6) LigPlot+. Atomic coordinates and structure factors have been deposited with the Protein Data
(§7) Bank with accession codes: 4NZM, 4NZN, 4NZO.
(§8) Mutants were generated using a site-directed mutagenesis kit (Stratagene). Pairs of complementary
primers were designed as shown below, with mutagenic primers underlined (only 5’ primers are
All mutated constructs were sequenced. Mutant proteins were expressed and purified as for wild-

PPIP5K2^KD E192Q mutant = target: T4, PPIP5K2^KD E192Q mutant (Homo sapiens, UniProt O43314, E192Q); assay: ATPase activity of E192Q mutant; conditions: 25 μM, Figure 7E
T4 construct: The kinase domain of human PPIP5K2 (PPIP5K2^KD; residues 1–366); made in house
T4 sequence (O43314 1-366 E192Q): T1 sequence (O43314 1-366 H194A) with E192Q, A194H
Method: as §1
Protein Expression, Purification, Crystallization and Structure Determination
Full-length human IP6K2, the kinase domain of human PPIP5K2 (PPIP5K2KD; residues 1-
366), and the N-terminally truncated domain used for the crystallography studies (residues
41-366) were all sub-cloned, expressed and purified as before (Wang et al., 2012; Weaver et
al., 2013). […]
as §2, §3, §4, §5, §6, §7, §8
primers were designed as shown below, with mutagenic primers underlined (only 5’ primers are […]

| Structure (SMILES) | ATPase activity in the presence of analog (in words) (PPIP5K2^KD H194A mutant) | stimulation of ATPase activity vs wild-type (in words) (PPIP5K2^KD R213A mutant) | rate of ligand-stimulated ATPase activity vs wild-type (in words) (PPIP5K2^KD E192G mutant) | rate of ligand-stimulated ATPase activity vs wild-type (in words) (PPIP5K2^KD E192Q mutant) |
| --- | --- | --- | --- | --- |
| O=C(CP(=O)(O)O)O[C@@H]1[C@@H](OP(=O)(O)O)[C@H](OP(=O)(O)O)[C@H](OCc2ccccc2)[C@H](OP(=O)(O)O)[C@H]1OP(=O)(O)O [compound 2, 2-O-benzyl-5-O-α-phosphonoacetyl-myo-inositol 1,3,4,6-tetrakisphosphate] | did not exhibit any detectable ATPase activity | substantially impaired degree of stimulation | neither of these particular mutations altered the rate | neither of these particular mutations altered the rate |
| O=P(O)(O)O[C@@H]1[C@@H](OCc2ccccc2)[C@H](OP(=O)(O)O)[C@@H](OP(=O)(O)O)[C@@H](OCc2ccccc2)[C@H]1OP(=O)(O)O [compound 10, 2,5-di-O-Bn-InsP4] | did not exhibit any detectable ATPase activity | substantially impaired degree of stimulation | neither of these particular mutations altered the rate | neither of these particular mutations altered the rate |

— paper PMC4085797, “Synthetic Inositol Phosphate Analogs Reveal that PPIP5K2 Has a Surface-Mounted Substrate Capture Site that Is a Target for Drug Discovery” (Chemistry & Biology, 2014)
